From patent US20240391965A1, “STAPLED ANTIMICROBIAL PEPTIDES (STAMPS) AND USES THEREOF” (Lytica Therapeutics, Inc., priority 2021, published 2024)
Converted amounts (≈) assume the structure as drawn. Starred links: 1 amine or outer side, 2 acyl side, 3 side chain; linkers in the order of their positions; H or OH if unused. Positions of bridges follow the written chain, without caps; N, C: chain ends. Residues, ends and D or L forms follow the SMILES beside them. 2,2'Bipyridine(5,5'-diCH2) = c1cc(-c2ccc(C[*:2])cn2)ncc1C[*:1]; Naphthalene(2,6-diCH2) = c1cc2cc(C[*:2])ccc2cc1C[*:1]; mXylylene = c1cc(C[*:1])cc(C[*:2])c1; pXylylene = c1cc(C[*:2])ccc1C[*:1]; X1 = C(=CC[*:2])C[*:1]

What was measured:
[1] = tested on: Acinetobacter baumannii (A. baumannii); format: cell-based; conditions: microbroth dilution, 20-24 hours at 37° C.
Experimental: (§1) Antimicrobial Activity Assay: The following microbroth dilution protocol was adapted from CLSI to determine the minimum inhibitory concentration (MIC) of StAMPs. Briefly, Mueller-Hinton broth (MHB) or cation-adjusted Mueller-Hinton broth (MHB II) was prepared and autoclaved. Then, a colony of bacterial cells was picked and grown overnight in broth at 37° C. and then diluted and allowed to grow again for 3-4 hours. Serial dilutions of peptide stocks in water (10 μl) were prepared using clear round-bottom polypropylene 96-well plates. Then 90 μl of bacteria in broth was added to give a final inoculum of 5×10^5 CFU/ml. The plates were then covered with porous tape to reduce evaporation and incubated for 20-24 hours at 37° C. The MIC was the minimum peptide concentration at which no visible bacterial growth was observed.

[2] = tested on: Escherichia coli (E. coli); format: cell-based; conditions: microbroth dilution, 20-24 hours at 37° C.
Experimental: as §1

[3] = tested on: Klebsiella pneumoniae (K. pneumoniae); format: cell-based; conditions: microbroth dilution, 20-24 hours at 37° C.
Experimental: as §1

[4] = tested on: Pseudomonas aeruginosa (P. aeruginosa); format: cell-based; conditions: microbroth dilution, 20-24 hours at 37° C.
Experimental: as §1

[5] = tested on: Staphylococcus aureus (S. aureus); format: cell-based; conditions: microbroth dilution, 20-24 hours at 37° C.
Experimental: as §1

[6] = 90 minute cytotoxicity assay (LDH release), renal toxicity; format: cell-based; conditions: 90 minutes of incubation, LDH release; read-out: Inhibitory Concentration at 50% Cytotoxicity (IC50) Human Renal Proximal Tubule Epithelial Cells (RPTEC)
In short: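 RPTEC plated overnight, given fresh medium, then exposed to serial peptide dilutions or vehicle for 90 min at 37° C. Medium LDH measured by 10 min reagent incubation and absorbance at 490 nm.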

[7] = 48 hours cytotoxicity assay (CellTiter-Glo), liver toxicity; format: cell-based, human; conditions: 48 hours of incubation, CellTiter-Glo; read-out: Inhibitory Concentration at 50% Cytotoxicity (IC50) Human Liver Cells (HepG2)
In short: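 HepG2 cells in EMEM with 10% FBS, allowed to attach 4 h, then exposed to serially diluted StAMPs or vehicle for 48 h at 37 °C. Viability read by CellTiter-Glo luminescence.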

| Structure (SMILES) | Minimum Inhibitory Concentration (MIC) A. baumannii [1] [µg/mL] | Minimum Inhibitory Concentration (MIC) E. coli [2] [µg/mL] | Minimum Inhibitory Concentration (MIC) K. pneumoniae [3] [µg/mL] | Minimum Inhibitory Concentration (MIC) P. aeruginosa [4] [µg/mL] | Minimum Inhibitory Concentration (MIC) S. aureus [5] [µg/mL] | IC50 [6] [µg/mL] | IC50 [7] [µg/mL] |
| --- | --- | --- | --- | --- | --- | --- | --- |
| CC[C@H](C)[C@H](NC(=O)CN)C(=O)N[C@H]1CSCC=CCSC[C@@H](C(=O)NCC(=O)N[C@@H](CCCCN)C(=O)N[C@@H](CCCCN)C(=O)N[C@H](C(=O)N[C@@H](CCCCN)C(=O)N[C@@H](CC(N)=O)C(=O)N[C@@H](CC(C)C)C(=O)N[C@@H](CC(C)C)C(=O)N[C@H](C(=O)N[C@@H](CO)C(=O)NCC(=O)N[C@@H](CC(C)C)C(=O)N[C@@H](CCCCN)C(=O)NCC(N)=O)[C@@H](C)CC)[C@@H](C)CC)NC(=O)[C@H](CC(C)C)NC(=O)[C@H](CCCCN)NC(=O)[C@H](CO)NC1=O [compound 1] (H-GICSKLCGKKIKNLLISGLKG-NH2; linker 3-7 via X1) | 8 | 8 | 64 | 32 | >64 | > 200 | > 200 |
| CC[C@H](C)[C@H](NC(=O)CN)C(=O)N[C@@H](Cc1ccccc1)C(=O)N[C@@H](CO)C(=O)N[C@@H](CCCCN)C(=O)N[C@@H](CC(C)C)C(=O)N[C@H]1CSCc2cccc(c2)CSC[C@@H](C(=O)N[C@@H](CCCCN)C(=O)N[C@@H](CC(N)=O)C(=O)N[C@@H](CC(C)C)C(=O)N[C@@H](CC(C)C)C(=O)N[C@H](C(=O)N[C@@H](CO)C(=O)NCC(=O)N[C@@H](CC(C)C)C(=O)N[C@@H](CCCCN)C(=O)NCC(N)=O)[C@@H](C)CC)NC(=O)[C@H](CCCCN)NC(=O)[C@H](CCCCN)NC(=O)CNC1=O [compound 2] (H-GIFSKLCGKKCKNLLISGLKG-NH2; linker 7-11 via mXylylene) | 4 | 2 | 16 | 8 | >64 | 101 (≈ 43.7 µM) | 97 (≈ 42 µM) |
| CC[C@H](C)[C@H](NC(=O)CN)C(=O)N[C@@H](Cc1ccccc1)C(=O)N[C@@H](CO)C(=O)N[C@@H](CCCCN)C(=O)N[C@@H](CC(C)C)C(=O)N[C@H]1CSCc2ccc(cc2)CSC[C@@H](C(=O)N[C@@H](CCCCN)C(=O)N[C@@H](CC(N)=O)C(=O)N[C@@H](CC(C)C)C(=O)N[C@@H](CC(C)C)C(=O)N[C@H](C(=O)N[C@@H](CO)C(=O)NCC(=O)N[C@@H](CC(C)C)C(=O)N[C@@H](CCCCN)C(=O)NCC(N)=O)[C@@H](C)CC)NC(=O)[C@H](CCCCN)NC(=O)[C@H](CCCCN)NC(=O)CNC1=O [compound 3] (H-GIFSKLCGKKCKNLLISGLKG-NH2; linker 7-11 via pXylylene) | 2 | 2 | 16 | 8 | >64 | 79 (≈ 34.2 µM) | 86 (≈ 37.2 µM) |
| CC[C@H](C)[C@H](NC(=O)CN)C(=O)N[C@@H](Cc1ccccc1)C(=O)N[C@@H](CO)C(=O)N[C@@H](CCCCN)C(=O)N[C@@H](CC(C)C)C(=O)N[C@@H](C)C(=O)N[C@H]1CSCc2cccc(c2)CSC[C@@H](C(=O)N[C@@H](CC(N)=O)C(=O)N[C@@H](CC(C)C)C(=O)N[C@@H](CC(C)C)C(=O)N[C@H](C(=O)N[C@@H](CO)C(=O)NCC(=O)N[C@@H](CC(C)C)C(=O)N[C@@H](CCCCN)C(=O)NCC(N)=O)[C@@H](C)CC)NC(=O)[C@H]([C@@H](C)CC)NC(=O)[C@H](CCCCN)NC(=O)[C@H](CCCCN)NC1=O [compound 10] (H-GIFSKLACKKICNLLISGLKG-NH2; linker 8-12 via mXylylene) | 4 | 4 | 8 | 16 | 32 | 17 (≈ 7.37 µM) | 18 (≈ 7.8 µM) |
| CC[C@H](C)[C@H](NC(=O)CN)C(=O)N[C@@H](Cc1ccccc1)C(=O)N[C@@H](CO)C(=O)N[C@@H](CCCCN)C(=O)N[C@@H](CC(C)C)C(=O)N[C@@H](C)C(=O)NCC(=O)N[C@@H](CCCCN)C(=O)N[C@H]1CSCc2ccc(nc2)-c2ccc(cn2)CSC[C@@H](C(=O)NCC(=O)N[C@@H](CC(C)C)C(=O)N[C@@H](CCCCN)C(=O)NCC(N)=O)NC(=O)[C@H]([C@@H](C)CC)NC(=O)[C@H](CC(C)C)NC(=O)[C@H](CC(C)C)NC(=O)[C@H](CC(N)=O)NC(=O)[C@H](CCCCN)NC(=O)[C@H]([C@@H](C)CC)NC1=O [compound 72] (H-GIFSKLAGKCIKNLLICGLKG-NH2; linker 10-17 via 2,2'Bipyridine(5,5'-diCH2); N-terminus assumed) | 4 | 4 | 8 | 32 | 4 | 19 (≈ 8.06 µM) | – |
| CC[C@H](C)[C@H](NC(=O)CN)C(=O)N[C@@H](Cc1ccccc1)C(=O)N[C@@H](CO)C(=O)N[C@@H](CCCCN)C(=O)N[C@@H](CC(C)C)C(=O)N[C@@H](C)C(=O)NCC(=O)N[C@@H](CCCCN)C(=O)N[C@H]1CSCc2ccc3cc(ccc3c2)CSC[C@@H](C(=O)NCC(=O)N[C@@H](CC(C)C)C(=O)N[C@@H](CCCCN)C(=O)NCC(N)=O)NC(=O)[C@H]([C@@H](C)CC)NC(=O)[C@H](CC(C)C)NC(=O)[C@H](CC(C)C)NC(=O)[C@H](CC(N)=O)NC(=O)[C@H](CCCCN)NC(=O)[C@H]([C@@H](C)CC)NC1=O [compound 73] (H-GIFSKLAGKCIKNLLICGLKG-NH2; linker 10-17 via Naphthalene(2,6-diCH2); N-terminus assumed) | 4 | 8 | 8 | 64 | 4 | 9 (≈ 3.87 µM) | – |
| CC[C@H](C)[C@H](NC(=O)CN)C(=O)N[C@@H](Cc1ccccc1)C(=O)N[C@@H](CO)C(=O)N[C@@H](CCCCN)C(=O)N[C@@H](CC(C)C)C(=O)N[C@@H](C)C(=O)NCC(=O)N[C@@H](CCCCN)C(=O)N[C@@H](CCCCN)C(=O)N[C@H](C(=O)N[C@@H](CCCCN)C(=O)N[C@@H](CC(N)=O)C(=O)N[C@H]1CSCc2ccc(nc2)-c2ccc(cn2)CSC[C@@H](C(N)=O)NC(=O)[C@H](CCCCN)NC(=O)[C@H](CC(C)C)NC(=O)CNC(=O)[C@H](CO)NC(=O)[C@H]([C@@H](C)CC)NC(=O)[C@H](CC(C)C)NC1=O)[C@@H](C)CC [compound 84] (H-GIFSKLAGKKIKNCLISGLKC-NH2; linker 14-21 via 2,2'Bipyridine(5,5'-diCH2); N-terminus assumed) | 8 | 4 | 16 | 32 | >64 | – | 105 (≈ 43.7 µM) |
| CC[C@H](C)[C@H](NC(=O)CN)C(=O)N[C@@H](Cc1ccccc1)C(=O)N[C@@H](CO)C(=O)N[C@@H](CCCCN)C(=O)N[C@@H](CC(C)C)C(=O)N[C@@H](C)C(=O)NCC(=O)N[C@@H](CCCCN)C(=O)N[C@@H](CCCCN)C(=O)N[C@H](C(=O)N[C@@H](CCCCN)C(=O)N[C@@H](CC(N)=O)C(=O)N[C@H]1CSCc2ccc3cc(ccc3c2)CSC[C@@H](C(N)=O)NC(=O)[C@H](CCCCN)NC(=O)[C@H](CC(C)C)NC(=O)CNC(=O)[C@H](CO)NC(=O)[C@H]([C@@H](C)CC)NC(=O)[C@H](CC(C)C)NC1=O)[C@@H](C)CC [compound 85] (H-GIFSKLAGKKIKNCLISGLKC-NH2; linker 14-21 via Naphthalene(2,6-diCH2); N-terminus assumed) | 4 | 4 | 32 | 16 | 64 | – | 87 (≈ 36.7 µM) |
| CC[C@H](C)[C@H](NC(=O)CN)C(=O)N[C@@H](Cc1ccccc1)C(=O)N[C@@H](CO)C(=O)N[C@@H](CCCCN)C(=O)N[C@@H](CC(C)C)C(=O)N[C@H]1CSCC=CCSC[C@@H](C(=O)N[C@@H](CCCCN)C(=O)N[C@@H](CC(N)=O)C(=O)N[C@@H](CC(C)C)C(=O)N[C@@H](CC(C)C)C(=O)N[C@H](C(=O)N[C@@H](CO)C(=O)NCC(=O)N[C@@H](CC(C)C)C(=O)N[C@@H](CCCCN)C(=O)NCC(=O)N[C@@H](C)C(=O)N[C@@H](CCCCN)C(=O)O)[C@@H](C)CC)NC(=O)[C@H](CCCCN)NC(=O)[C@H](CCCCN)NC(=O)CNC1=O [compound 100] (H-GIFSKLCGKKCKNLLISGLKGAK-OH; linker 7-11 via X1) | 16 | 32 | >64 | >64 | >64 | – | > 200 |
